From ChEMBL document CHEMBL1148292 (J Med Chem, 2004)

Tests used:
Adenosine receptor A2b [1] = target: T1, Adenosine receptor A2b (Homo sapiens, UniProt P29275); assay: Inhibitory activity against cAMP production in CHO cells transfected with human A2B adenosine receptor; type: functional, cell-based
T1 sequence (P29275 whole entry): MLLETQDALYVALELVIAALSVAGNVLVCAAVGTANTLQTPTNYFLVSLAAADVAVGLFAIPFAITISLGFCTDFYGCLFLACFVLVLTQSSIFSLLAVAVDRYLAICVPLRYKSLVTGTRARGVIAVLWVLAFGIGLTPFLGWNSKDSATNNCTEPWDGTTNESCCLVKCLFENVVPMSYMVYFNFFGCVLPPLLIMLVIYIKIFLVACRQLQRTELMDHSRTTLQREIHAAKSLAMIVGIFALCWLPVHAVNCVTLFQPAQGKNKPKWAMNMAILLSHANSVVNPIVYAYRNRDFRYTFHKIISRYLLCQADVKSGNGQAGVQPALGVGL

Adenosine receptor A1 = target: T2, Adenosine receptor A1 (Homo sapiens, UniProt P30542); assay: Displacement of specific [3H]DPCPX binding at human adenosine A1 receptor expressed in CHO cells; type: cell-based
T2 sequence (P30542 whole entry): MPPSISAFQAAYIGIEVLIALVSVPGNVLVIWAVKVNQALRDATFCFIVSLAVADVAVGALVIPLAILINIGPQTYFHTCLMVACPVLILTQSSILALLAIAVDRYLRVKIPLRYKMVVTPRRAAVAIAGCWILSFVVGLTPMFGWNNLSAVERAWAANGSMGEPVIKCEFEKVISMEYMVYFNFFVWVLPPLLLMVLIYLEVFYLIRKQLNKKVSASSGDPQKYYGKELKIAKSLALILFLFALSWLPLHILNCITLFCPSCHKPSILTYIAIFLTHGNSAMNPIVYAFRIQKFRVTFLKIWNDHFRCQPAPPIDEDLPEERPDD

Adenosine receptor A2b [2] = target: T1, Adenosine receptor A2b; assay: Binding affinity of compound for displacement of [3H]DPCPX binding in HEK293 membranes expressing human A2B adenosine receptors
Adenosine receptor A2a = Adenosine receptor A2a (Homo sapiens, UniProt P29274); assay: Binding affinity of compound for displacement of specific [3H]ZM-241385 binding at human adenosine A2A receptor expressed in CHO cells; type: cell-based
Adenosine receptor A3 = target: T3, Adenosine receptor A3 (Homo sapiens, UniProt P0DMS8); assay: Binding affinity of compound for displacement of specific [3H]MRE3008-F20 binding at human A3 receptors expressed in CHO cells; type: cell-based
T3 sequence (P0DMS8 whole entry): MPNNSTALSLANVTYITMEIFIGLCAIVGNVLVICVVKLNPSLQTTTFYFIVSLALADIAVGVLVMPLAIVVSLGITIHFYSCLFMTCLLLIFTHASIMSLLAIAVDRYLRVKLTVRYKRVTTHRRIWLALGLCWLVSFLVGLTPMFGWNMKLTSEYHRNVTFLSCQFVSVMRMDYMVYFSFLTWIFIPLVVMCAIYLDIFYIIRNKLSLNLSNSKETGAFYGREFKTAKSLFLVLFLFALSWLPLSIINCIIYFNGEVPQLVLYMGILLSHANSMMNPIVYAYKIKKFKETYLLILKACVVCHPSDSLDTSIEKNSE

Adenosine receptor A2b [3] = target: T1, Adenosine receptor A2b; assay: Binding affinity of compound for displacement of specific [3H]- DPCPX binding at human A2B receptors expressed in HEK293 cells; type: cell-based

Sequence of Adenosine receptor A2a (P29274 whole entry): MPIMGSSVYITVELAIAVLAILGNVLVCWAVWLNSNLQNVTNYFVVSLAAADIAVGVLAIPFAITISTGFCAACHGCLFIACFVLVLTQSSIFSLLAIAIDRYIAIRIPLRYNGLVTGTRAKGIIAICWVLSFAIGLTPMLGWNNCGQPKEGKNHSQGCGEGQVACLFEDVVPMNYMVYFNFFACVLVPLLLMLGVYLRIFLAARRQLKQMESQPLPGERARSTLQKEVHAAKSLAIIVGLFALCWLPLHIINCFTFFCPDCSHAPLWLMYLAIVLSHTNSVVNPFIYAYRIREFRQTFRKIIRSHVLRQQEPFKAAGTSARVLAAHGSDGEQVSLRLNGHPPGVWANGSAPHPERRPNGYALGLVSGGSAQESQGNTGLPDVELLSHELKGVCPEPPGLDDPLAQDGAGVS

SMILES | Ki (Adenosine receptor A1) | Ki (Adenosine receptor A2b [2]) | Ki (Adenosine receptor A2a) | Ki (Adenosine receptor A3) | also measured
C=CCn1c(=O)c2[nH]c(-c3cc(OCC(=O)N4CCN(c5ccccc5)CC4)nn3C)nc2n(CC=C)c1=O | > 1 µM | 0.024 µM | – | – | IC50 (Adenosine receptor A2b [1]): 0.081 µM
CCCn1c(=O)c2[nH]c(-c3cc(OCC(=O)Nc4ccc(C(=O)OCC)cc4)nn3C)nc2n(CCC)c1=O | > 1 µM | 0.032 µM | – | – | IC50 (Adenosine receptor A2b [1]): 0.12 µM
CCCn1c(=O)c2[nH]c(-c3cc(OCC(=O)Nc4ccc(F)cc4)no3)nc2n(CCC)c1=O | > 1 µM | – | – | – | –
CCCn1c(=O)c2[nH]c(-c3cc(NC(=O)Cc4ccc(N(C)C)cc4)nn3C)nc2n(CCC)c1=O | > 1 µM | – | – | – | –
CCCn1c(=O)c2[nH]c(-c3cc(NC(=O)Cc4ccc(OCc5ccccc5)cc4)nn3C)nc2n(CCC)c1=O | > 1 µM | 0.056 µM | – | – | IC50 (Adenosine receptor A2b [1]): 0.185 µM
CCCn1c(=O)c2[nH]c(-c3cc(OCC(=O)Nc4ccncc4)nn3C)nc2n(CCC)c1=O | – | – | > 1 µM | > 1 µM | –
CCCn1c(=O)c2[nH]c(-c3cc(OCC(=O)N4CCN(C)CC4)nn3C)nc2n(CCC)c1=O | > 1 µM | 0.076 µM | – | – | Ki (Adenosine receptor A2b [3]): 0.076 µM; IC50 (Adenosine receptor A2b [1]): 0.322 µM; Ki (Adenosine receptor A1; cho): > 1 µM
CCCn1c(=O)c2[nH]c(-c3cc(NC(=O)Cc4ccc([N+](=O)[O-])cc4)nn3C)nc2n(CCC)c1=O | > 1 µM | – | – | – | –
CCCn1c(=O)c2[nH]c(-c3cc(OCC(=O)Nc4ccc(Br)cc4)nn3C)nc2n(CCC)c1=O | – | 0.02 µM | – | – | –
CCCn1c(=O)c2[nH]c(-c3cc(OCC(=O)Nc4ccc(OC)c(OC)c4)no3)nc2n(CCC)c1=O | > 1 µM | – | – | – | –
Cn1nc(-c2nc3c([nH]2)c(=O)n(C)c(=O)n3C)cc1N | > 1 µM | – | > 1 µM | > 1 µM | Ki (Adenosine receptor A2b [3]): 0.175 µM
CCCn1c(=O)c2[nH]c(-c3cc(NC(=O)[C@H](C)c4ccccc4)nn3C)nc2n(CCC)c1=O | > 1 µM | – | – | – | –
CCCn1c(=O)c2[nH]c(-c3cc(OCC(=O)Nc4ccc(C(C)CC)cc4)nn3C)nc2n(CCC)c1=O (centres undefined) | – | – | > 1 µM | > 1 µM | –
CCCn1c(=O)c2[nH]c(-c3cc(C(=O)O)n(C)n3)nc2n(CCC)c1=O | > 1 µM | – | – | – | –
CCCn1c(=O)c2[nH]c(-c3cc(NC(=O)Cc4ccc(Cl)cc4)nn3C)nc2n(CCC)c1=O | – | 0.028 µM | – | – | –
CCCn1c(=O)c2[nH]c(-c3cc(NC(=O)Cc4ccc(OCc5ccccc5C(F)(F)F)cc4)nn3C)nc2n(CCC)c1=O | – | 0.013 µM | – | – | –
CCCn1c(=O)c2[nH]c(-c3cc(NC(=O)Cc4ccccc4)n(C)n3)nc2n(CCC)c1=O | – | 0.034 µM | > 1 µM | > 1 µM | –
CCCn1c(=O)c2[nH]c(-c3cc(OCC(=O)Nc4ccc(C(C)=O)cc4)nn3C)nc2n(CCC)c1=O | > 1 µM | – | > 1 µM | > 1 µM | –
CCCn1c(=O)c2[nH]c(-c3cc(OCC(=O)Nc4ccc(OC)cc4)no3)nc2n(CCC)c1=O | > 1 µM | – | – | – | –
CCCn1c(=O)c2[nH]c(-c3cc(OCC(=O)N4CCN(Cc5ccccc5)CC4)nn3C)nc2n(CCC)c1=O | – | – | > 1 µM | > 1 µM | –
CCCn1c(=O)c2[nH]c(-c3ccc(NC(=O)Cc4ccccc4)cc3)nc2n(CCC)c1=O | > 1 µM | – | > 1 µM | > 1 µM | Ki (Adenosine receptor A2b [3]): 0.649 µM
CCCn1c(=O)c2[nH]c(-c3cc(NC(=O)Cc4ccc(C(F)(F)F)cc4)nn3C)nc2n(CCC)c1=O | – | – | – | – | Ki (Adenosine receptor A2b [3]): 0.13 µM
CCCn1c(=O)c2[nH]c(-c3cc(NC(=O)Cc4ccccc4)nn3C)nc2n(CCC)c1=O | – | 0.035 µM | – | – | –
CCCn1c(=O)c2[nH]c(-c3ccc(OCC(=O)Nc4ccc(I)cc4)nn3)nc2n(CCC)c1=O | > 1 µM | – | – | – | –
CCCn1c(=O)c2[nH]c(-c3ccc(NC(=O)Nc4cccc(OC)c4)cc3)nc2n(CCC)c1=O | 1.17 µM | – | > 1 µM | > 1 µM | Ki (Adenosine receptor A2b [3]): 0.058 µM
CCCn1c(=O)c2nc(-c3cc(OCC(=O)Nc4ccc5c(c4)OCO5)no3)[nH]c2n(CCC)c1=O | > 1 µM | 0.047 µM | > 1 µM | > 1 µM | Ki (Adenosine receptor A2b [3]): 0.047 µM; IC50 (Adenosine receptor A2b [1]): 0.14 µM
CCCn1c(=O)c2[nH]c(-c3cc(NC(=O)Cc4ccc5c(c4)OCO5)nn3C)nc2n(CCC)c1=O | – | 0.018 µM | > 1 µM | – | –
